The text below walks through data of patent publication US20250263376A1, “(E)-N-CINNAMOYLAMINOALKANOLS WITH MELANOGENESIS INHIBITORY ACTIVITY” (Uniwersytet Jagiellonski, priority 2024, published 2025).

The structures appear in SMILES notation.

Series [1] concerns B16-F10 murine melanoma cell line. Briefly: Cytotoxicity (MTT) in B16-F10 murine melanoma cells. Format: cell-based. The conditions noted are these: 48 h. The method, boiled down:
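B16-F10 cells seeded 5000/well in F10-Ham with 1% FBS, grown 24 h, then exposed to compound at various concentrations for 48 h. MTT formazan dissolved in DMSO, absorbance at 570 nm; viability as % of DMSO control (AT/AC×100).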

Series [2] concerns the target T1, tyrosinase from mushroom (Agaricus bisporus, UniProt C7FF04). Briefly: Inhibition of commercial mushroom tyrosinase, substrate L-DOPA. The class given is biochemical. The conditions noted are these: read-out: Tyrosinase inhibition with L-DOPA [%]. In outline:
(§1)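 Compounds at final 500, 250 or 125 μM with tyrosinase (1 or 3 U/well) in 50 mM phosphate buffer pH 6.8; reaction started with L-tyrosine (monophenolase) or L-DOPA (diphenolase). After 25 min, absorbance at 475 nm; % inhibition versus DMSO control.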

Series [3] in a line: Lipophilicity coefficient RM0 by reversed phase thin layer chromatography. Format: physicochemical. The conditions noted are these: RP-18 TLC, methanol/phosphate buffer pH=7.4. In outline:
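RP-18 F254 TLC plates developed at room temperature in methanol/100 mM phosphate buffer pH 7.4, methanol 95–65% (v/v), spots seen under UV 254 nm, in duplicate. RM = log(1/Rf − 1) regressed linearly against methanol content to give RM0.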

For series [4], the target named is T1, tyrosinase from mushroom. As to the kind of experiment: Inhibition of commercial mushroom tyrosinase, substrate L-tyrosine. The class given is biochemical. The following applies: read-out: Tyrosinase inhibition with L-tyrosine [%]. In outline: as §1
The test system of another series is S. typhimurium TA1535. As to the kind of experiment: Ames microplate test, TA1535.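 Note: bacteria exposed 90 min at 37 °C in exposure medium, then 48 h in indicator medium in 384-well plates, yellow (revertant) wells counted per condition.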

T1 sequence (C7FF04 2-392): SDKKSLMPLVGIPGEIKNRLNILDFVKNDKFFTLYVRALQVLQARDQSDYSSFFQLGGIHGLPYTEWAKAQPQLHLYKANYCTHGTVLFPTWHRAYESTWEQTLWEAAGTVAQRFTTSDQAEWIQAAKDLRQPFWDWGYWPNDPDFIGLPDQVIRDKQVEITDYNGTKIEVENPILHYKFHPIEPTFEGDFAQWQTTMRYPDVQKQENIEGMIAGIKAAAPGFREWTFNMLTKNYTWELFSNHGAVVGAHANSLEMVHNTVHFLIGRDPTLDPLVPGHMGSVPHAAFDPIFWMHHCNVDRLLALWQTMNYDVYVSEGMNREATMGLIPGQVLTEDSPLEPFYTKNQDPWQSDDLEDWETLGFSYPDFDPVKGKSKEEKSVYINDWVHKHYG
T1 sequence (G1K3P4 entry or part of it, further chain): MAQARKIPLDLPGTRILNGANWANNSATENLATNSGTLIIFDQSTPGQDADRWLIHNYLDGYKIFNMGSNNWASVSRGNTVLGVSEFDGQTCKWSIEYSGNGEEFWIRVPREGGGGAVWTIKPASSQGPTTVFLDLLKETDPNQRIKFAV
Protocol for S. typhimurium TA1535: The study used the Ames microplate test (Ames MPF™ Penta 2 by Xenometrix, Allschwil, Switzerland). Growth medium, exposure medium, indicator medium, positive controls, hepatic microsomal fraction, NADP, glucose-6-phosphate, Salmonella typhimurium and Escherichia coli strains were components of the purchased experimental kit. Bacteria were grown overnight in growth medium. They were then exposed to the test compound at the appropriate concentration in exposure medium without or with the rat microsomal fraction S9 in 24-well plates for 90 min at 37° C. with shaking. Then, indicator medium was added to the wells and pipetted into 384-well plates, which were incubated for 48 hours at 37° C. without shaking. Results were assessed by counting the wells in which the medium turned yellow for each experimental condition.

Regarding `O=C(/C=C/c1ccc(Cl)cc1)NCCCCCO` [Compound A-111, (2E)-3-(4-chlorophenyl)-N-(5-hydroxypentyl)prop-2-enamide], the “Cytotoxicity study in B16F10 cells, % viability” value (“Cytotoxicity study … % viability” for short) in series [1] (150 μM) came to 88.2%; in series [1] (200 μM), 95.6%; in series [1] (250 μM), 89.7%. Further, on tyrosinase from mushroom [2], the inhibition at 250 µM turned out to be 59.9 ± 1.56%. The compound further had an RM0 in series [3] of 2.79. The inhibition at 500 µM on tyrosinase from mushroom [4] was 89 ± 0.98%. The “Increase in the number of yellow wells compared to the reference level, TA1535” value (shortened to “Increase in the number of yellow wells”) in the series with S. typhimurium TA1535 (0.5 mM, + S9) is reported as 0.58; with S. typhimurium TA1535 (0.5 mM, without S9) it was 0.55; with S. typhimurium TA1535 (1.0 mM, + S9), 0.35; with S. typhimurium TA1535 (1.0 mM, without S9), 0.18; in the series with S. typhimurium TA1535 (2.0 mM, + S9), 0.23; in the series on S. typhimurium TA1535 (2.0 mM, without S9) it was 1.65.
For `O=C(/C=C/c1ccc(Cl)cc1)NCCCO` [H-330/21, (2E)-3-(4-chlorophenyl)-N-(3-hydroxypropyl)prop-2-enamide], the “Cytotoxicity study … % viability” value in series [1] (150 μM) is 78.6%; in series [1] (200 μM), 82.9%; in series [1] (250 μM), 83.9%. Besides, the inhibition at 500 µM at tyrosinase from mushroom [2] (500 μM) turned out to be 55.3 ± 1.39%; on tyrosinase from mushroom [4] (500 μM), 82.49 ± 0.65%. The RM0 in series [3] came out at 1.94.
Regarding `Cc1ccc(/C=C/C(=O)NCCCCCO)cc1` [H-415/21, (2E)-N-(5-hydroxypentyl)-3-(4-methylphenyl)prop-2-enamide], the figures for the “Cytotoxicity study … % viability” value in series [1] (150 μM), in series [1] (200 μM) and in series [1] (250 μM) were 85.2%, 90.3% and 75.7%, respectively. Also, the results for the inhibition at 500 µM on tyrosinase from mushroom [2] and at tyrosinase from mushroom [4] were 30.4 ± 0.88% and 25 ± 5.67%, respectively. This compound returned an RM0 in series [3] of 2.49. For the same compound, the “Increase in the number of yellow wells” value with S. typhimurium TA1535 (0.5 mM, without S9) worked out at 0.21; with S. typhimurium TA1535 (1.0 mM, without S9), 0.41; with S. typhimurium TA1535 (2.0 mM, without S9), 0.10.
For `O=C(/C=C/c1ccc(Cl)cc1)NCCO` [H-427/21, (2E)-3-(4-chlorophenyl)-N-(2-hydroxyethyl)prop-2-enamide], the “Cytotoxicity study … % viability” value is on record as 73.7% in series [1] (150 μM), 80.2% in series [1] (200 μM) and 77.8% in series [1] (250 μM). Further, the inhibition at 500 µM is 55.8 ± 0.77% on tyrosinase from mushroom [2] (500 μM) and 67.5 ± 2.66% at tyrosinase from mushroom [4] (500 μM). Further, the RM0 in series [3] amounted to 1.93.
Regarding `O=C(/C=C/c1ccccc1)NCCCCCCO` [H-425/21, (E)-N-(6-hydroxyhexyl)cinnamic acid amide], the “Cytotoxicity study … % viability” value in series [1] (150 μM) is 109.2%; in series [1] (200 μM), 98.4%; in series [1] (250 μM) it was 86.9%. For the same compound, the inhibition at 500 µM on tyrosinase from mushroom [2] (500 μM) is 34.6 ± 2.46%; on tyrosinase from mushroom [4] (500 μM), 44.6 ± 5.99%. The compound further registered an RM0 in series [3] of 2.40. Further, the “Increase in the number of yellow wells” value with S. typhimurium TA1535 (0.5 mM, + S9) is 0.54; with S. typhimurium TA1535 (0.5 mM, without S9) it was 1.04; in the series with S. typhimurium TA1535 (1.0 mM, + S9), 0.40; in the series on S. typhimurium TA1535 (1.0 mM, without S9), 0.59; with S. typhimurium TA1535 (2.0 mM, + S9), 0.94; in the series on S. typhimurium TA1535 (2.0 mM, without S9), 0.45.
Take `O=C(/C=C/c1ccccc1)NCCCCCO` [Compound A-133, (2E)-N-(5-hydroxypentyl)-3-phenylprop-2-enamide]: the “Cytotoxicity study … % viability” value in series [1] (150 μM) is given as 101.7%; in series [1] (200 μM) it was 94.9%; in series [1] (250 μM) it was 95.6%. Further, the inhibition at 500 µM on tyrosinase from mushroom [2] stood at 48 ± 1.83%; on tyrosinase from mushroom [4] it was 58.6 ± 4.58%. The compound also registered an RM0 in series [3] of 2.15. Also, the “Increase in the number of yellow wells” value was found to be 0.47 with S. typhimurium TA1535 (0.5 mM, + S9); 0.92 in the series with S. typhimurium TA1535 (0.5 mM, without S9); 0.23 in the series with S. typhimurium TA1535 (1.0 mM, + S9); 0.55 with S. typhimurium TA1535 (1.0 mM, without S9); 0.35 with S. typhimurium TA1535 (2.0 mM, + S9); 1.10 in the series on S. typhimurium TA1535 (2.0 mM, without S9).
